# Source: US11076595B2, “1-(n,n-disubstituted carbamoyl) 4-(substituted sulfonyl)triazolin-5-one derivative, 4-(n,n-disubstituted carbamoyl) 1-(substituted sulfonyl)triazolin-5-one derivative, and herbicide containing said derivative as active ingredient” (HOKKO CHEMICAL INDUSTRY CO., LTD., priority 2017, dated 2021)
# Assays:
# Type in all cases: in vivo
# [1] = system: Scirpus juncoides; experiment: Test Example 2: herbicidal effect test by treatment during growing period in paddy field; conditions: treatment 7 days after sowing, 120 g/10a, evaluated 14 days after treatment
# Method: (§1) This test was performed with two replications per one formulation concentration plot, and 14 days after the formulation treatments, the weed suppression rate (%) was determined according to the following equation (Math. 1). Weed suppression rate (%)=(1−an average dry weight (g) of plants in treated plots/an average dry weight (g) of plants in untreated plots)×100 [Math. 1]
# (§2) A Wagner pot having an area of 1/10000 are was filled with paddy field soil and after adding water, a chemical fertilizer (N:P:K=17:17:17) was mixed, followed by puddling. Thereafter, 30 grains of each of Echinochloa crus-galli, broad-leaved weed (Lindernia pyxidaria and Monochoria vaginalis) and Scirpus juncoides seeds were sown to a depth of 0 to 1 cm. Immediately after the sowing, the pot was flooded, and the depth of water was kept at about 3 cm. The pot was subsequently managed in a glass greenhouse. Seven days after sowing, an emulsifiable concentrate prepared according to Formulation Example 5 by using the compound shown in Table 6 below was diluted with water, and a predetermined amount of the water-diluted formulation was added dropwise. The application rate of the active ingredient, by conversion, corresponded to 120 g per 10 are. The test was performed with two replications per one formulation concentration plot, and 14 days after the formulation treatments, the weed suppression rate (%) was determined according to the equation (Math. 1).
# [2] = system: Lindernia pyxidaria; experiment: as above; conditions: treatment 7 days after sowing, 120 g/10a, evaluated 14 days after treatment
# Method: as §1, §2
# [3] = system: Echinochloa crus-galli; experiment: as above; conditions: treatment 7 days after sowing, 120 g/10a, evaluated 14 days after treatment
# Method: as §1, §2
# [4] = system: Monochoria vaginalis; experiment: as above; conditions: treatment 7 days after sowing, 120 g/10a, evaluated 14 days after treatment
# Method: as §1, §2
# [5] = system: Scirpus juncoides; experiment: Test Example 1: herbicidal effect test by soil treatment in paddy field; conditions: 120 g/10a, paddy soil treatment just after sowing, 14 days after treatment
# Excerpt: as §2, with “greenhouse. Just” for “greenhouse. Seven days”, “after that,” for “after sowing,”, “Table 5” for “Table 6”, “are.” for “are. The test was performed with two replications per one formulation concentration plot, and 14 days after the formulation treatments, the weed suppression rate (%) was determined according to the equation (Math. 1).”
# as §1
# [6] = system: Lindernia pyxidaria; experiment: as above; conditions: 120 g/10a, paddy soil treatment just after sowing, 14 days after treatment
# Excerpt: as §2, with “greenhouse. Just” for “greenhouse. Seven days”, “after that,” for “after sowing,”, “Table 5” for “Table 6”, “are.” for “are. The test was performed with two replications per one formulation concentration plot, and 14 days after the formulation treatments, the weed suppression rate (%) was determined according to the equation (Math. 1).”
# as §1
# [7] = system: Echinochloa crus-galli; experiment: as above; conditions: 120 g/10a, paddy soil treatment just after sowing, 14 days after treatment
# Excerpt: as §2, with “greenhouse. Just” for “greenhouse. Seven days”, “after that,” for “after sowing,”, “Table 5” for “Table 6”, “are.” for “are. The test was performed with two replications per one formulation concentration plot, and 14 days after the formulation treatments, the weed suppression rate (%) was determined according to the equation (Math. 1).”
# as §1
# [8] = system: Monochoria vaginalis; experiment: as above; conditions: 120 g/10a, paddy soil treatment just after sowing, 14 days after treatment
# Excerpt: as §2, with “greenhouse. Just” for “greenhouse. Seven days”, “after that,” for “after sowing,”, “Table 5” for “Table 6”, “are.” for “are. The test was performed with two replications per one formulation concentration plot, and 14 days after the formulation treatments, the weed suppression rate (%) was determined according to the equation (Math. 1).”
# as §1
# [9] = system: crabgrass; experiment: Test Example 14: herbicidal effect test by foliage treatment in upland field; conditions: 7 days after sowing, 120 g/10a, 14 days after treatment
# How it was run: (§3)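 Post-sowing spray at day 7, 120 g a.i./10 are in 100 L water/10 are; alluvial soil pots, duplicate plots; endpoint day 14, % suppression from dry weight relative to untreated.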
# [10] = system: Chenopodium album; experiment: as above; conditions: 7 days after sowing, 120 g/10a, 14 days after treatment
# How it was run: as §3
# [11] = system: Scirpus juncoides; experiment: Test Example 11: herbicidal effect test by soil treatment in paddy field; conditions: 120 g/10a active ingredient, 14 days after treatment
# How it was run: (§4)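 Dry weight at day 14 relative to untreated controls gives the suppression rate; duplicate pots. Treatment: 120 g a.i./10 are into paddy water at sowing.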
# [12] = system: Lindernia pyxidaria; experiment: as above; conditions: 120 g/10a active ingredient, 14 days after treatment
# How it was run: as §4
# [13] = system: Echinochloa crus-galli; experiment: as above; conditions: 120 g/10a active ingredient, 14 days after treatment
# How it was run: as §4
# [14] = system: Monochoria vaginalis; experiment: as above; conditions: 120 g/10a active ingredient, 14 days after treatment
# How it was run: as §4
# [15] = system: crabgrass; experiment: Test Example 13: herbicidal effect test by soil treatment in upland field; conditions: 120 g/10a, 14 days after treatment
# How it was run: (§5)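 Soil-applied emulsifiable concentrate at 120 g active ingredient per 10 are, sprayed one day after seeding into alluvial soil pots. Dry-weight-based suppression scored at 14 days; two replications.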
# [16] = system: Chenopodium album; experiment: as above; conditions: 120 g/10a, 14 days after treatment
# How it was run: as §5
# [17] = system: Echinochloa crus-galli; experiment: as above; conditions: 120 g/10a, 14 days after treatment
# How it was run: as §5
# [18] = system: Amaranthus viridis; experiment: as above; conditions: 120 g/10a, 14 days after treatment
# How it was run: as §5
# [19] = system: Echinochloa crus-galli; experiment: Test Example 14: herbicidal effect test by foliage treatment in upland field; conditions: 7 days after sowing, 120 g/10a, 14 days after treatment
# How it was run: as §3
# [20] = system: Amaranthus viridis; experiment: as above; conditions: 7 days after sowing, 120 g/10a, 14 days after treatment
# How it was run: as §3
# [21] = system: Scirpus juncoides; experiment: Test Example 12: herbicidal effect test by treatment during growing period in paddy field; conditions: 120 g/10a; treatment seven days after sowing in flooded paddy pot; assessed 14 days after treatment
# How it was run: (§6)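 Seeds (30 per species) are sown shallowly into fertilized, puddled paddy soil kept under ~3 cm of water in a greenhouse. One week later, compound formulated as an emulsifiable concentrate is applied dropwise to the water at 120 g a.i./10 are. After 14 days, dry weights give percent suppression against untreated controls.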
# [22] = system: Lindernia pyxidaria; experiment: as above; conditions: 120 g/10a; treatment seven days after sowing in flooded paddy pot; assessed 14 days after treatment
# How it was run: as §6
# [23] = system: Echinochloa crus-galli; experiment: as above; conditions: 120 g/10a; treatment seven days after sowing in flooded paddy pot; assessed 14 days after treatment
# How it was run: as §6
# [24] = system: Monochoria vaginalis; experiment: as above; conditions: 120 g/10a; treatment seven days after sowing in flooded paddy pot; assessed 14 days after treatment
# How it was run: as §6
Structure (SMILES),"weed suppression rate, Scirpus juncoides [1] [%]","weed suppression rate, Lindemia pyxidaria [2] [%]","weed suppression rate, Echinochloa crus-galli [3] [%]","weed suppression rate, Monochoria vaginalis [4] [%]","weed suppression rate, Scirpus juncoides [5] [%]","weed suppression rate, Lindemia pyxidaria [6] [%]","weed suppression rate, Echinochloa crus-galli [7] [%]","weed suppression rate, Monochoria vaginalis [8] [%]","herbicidal effect, Crabgrass [9] [%]","herbicidal effect, Chenopodium album [10] [%]",Weed suppression rate (%) Scirpus juncoides [11] [%],Weed suppression rate (%) Lindemia pyxidaria [12] [%],Weed suppression rate (%) Echinochloa crus-galli [13] [%],Weed suppression rate (%) Monochoria vaginalis [14] [%],"herbicidal effect, Crabgrass [15] [%]","herbicidal effect, Chenopodium album [16] [%]","herbicidal effect, Echinochloa crus-galli [17] [%]","herbicidal effect, Amaranthus viridis [18] [%]","herbicidal effect, Echinochloa crus-galli [19] [%]","herbicidal effect, Amaranthus viridis [20] [%]",other results
CC(C)N(C(=O)n1ncn(S(=O)(=O)C2CCCCC2)c1=O)c1ccc(C#N)cc1Cl [Compound 1-328],90,80,90,80,90,80,90,80,,,,,,,,,,,,,
CC(C)N(C(=O)n1ncn(S(=O)(=O)C2CCCCC2)c1=O)c1ccc(C(F)(F)F)cc1F [Compound 1-323],70,70,100,70,100,100,100,80,,,,,,,,,,,,,
CC(C)N(C(=O)n1ncn(S(=O)(=O)C2CCCCC2)c1=O)c1c(F)cc(F)cc1F [Compound 1-310],100,100,100,100,100,100,100,100,,,,,,,,,,,,,
CC(C)N(C(=O)n1ncn(S(=O)(=O)C2CC2)c1=O)c1ccc(Cl)nc1 [Compound 1-248],90,90,100,90,100,100,100,90,,,,,,,,,,,,,
CC(C)N(C(=O)n1ncn(S(=O)(=O)C(C)C)c1=O)c1ccc(Cl)nc1 [Compound 1-97],80,80,90,90,90,80,90,90,,,,,,,,,,,,,
CC(C)N(C(=O)n1ncn(S(=O)(=O)c2cccs2)c1=O)c1ccc(F)cc1F [Compound 1-1060],,,,,90,80,90,80,,,,,,,,,,,,,
CC(C)N(C(=O)n1cnn(S(=O)(=O)C2CC2)c1=O)c1ncc(Cl)cc1Cl [Compound 11-234],,,,,,,,,90,80,90,90,90,80,90,80,80,90,80,90,Weed suppression rate (%) Scirpus juncoides [21]: 90%; Weed suppression rate (%) Lindemia pyxidaria [22]: 90%; Weed suppression rate (%) Echinochloa crus-galli [23]: 90%; Weed suppression rate (%) Monochoria vaginalis [24]: 90%
Cc1ccc(N(C(=O)n2cnn(S(C)(=O)=O)c2=O)C(C)C)c(F)c1 [Compound 11-26],,,,,,,,,90,80,90,80,90,80,90,80,80,90,80,90,Weed suppression rate (%) Scirpus juncoides [21]: 90%; Weed suppression rate (%) Lindemia pyxidaria [22]: 80%; Weed suppression rate (%) Echinochloa crus-galli [23]: 90%; Weed suppression rate (%) Monochoria vaginalis [24]: 80%
CCS(=O)(=O)n1ncn(C(=O)N(c2c(F)cccc2F)C(C)C)c1=O [Compound 11-1150],,,,,,,,,100,60,90,100,100,70,100,80,100,90,100,50,Weed suppression rate (%) Scirpus juncoides [21]: 60%; Weed suppression rate (%) Lindemia pyxidaria [22]: 100%; Weed suppression rate (%) Echinochloa crus-galli [23]: 100%; Weed suppression rate (%) Monochoria vaginalis [24]: 90%
CC(C)N(C(=O)n1cnn(S(=O)(=O)C2CC2)c1=O)c1c(F)cccc1F [Compound 11-191],,,,,,,,,100,60,100,100,100,90,100,70,100,70,100,60,Weed suppression rate (%) Scirpus juncoides [21]: 90%; Weed suppression rate (%) Lindemia pyxidaria [22]: 90%; Weed suppression rate (%) Echinochloa crus-galli [23]: 100%; Weed suppression rate (%) Monochoria vaginalis [24]: 90%
Cc1ccc(N(C(=O)n2cnn(S(=O)(=O)C(C)C)c2=O)C(C)C)c(F)c1 [Compound 11-73],,,,,,,,,90,80,90,80,90,80,90,80,80,90,80,90,Weed suppression rate (%) Scirpus juncoides [21]: 90%; Weed suppression rate (%) Lindemia pyxidaria [22]: 80%; Weed suppression rate (%) Echinochloa crus-galli [23]: 90%; Weed suppression rate (%) Monochoria vaginalis [24]: 80%
